Where two headings read alike, the source gives them in different places.
What was measured:
[1] = tested on: A. tumefaciens NT1(pZLR4) traG-lacZ reporter fusion; assay: QSI activity on A. tumefaciens AHL-bioindicator (traG-lacZ β-galactosidase); type: cell-based, Agrobacterium tumefaciens; details: for QSI hit in library screening: second screening: compounds at 5 µg/ml, C8-HSL 10 nM, A. tumefaciens biosensor
Method: Two bacterial QS-signal biosensors were used. Chromobacterium violaceum CV026 [41] was grown in Luria-Bertani modified (LBm) medium, in which the NaCl concentration was 5 g/l instead of 10 g/l. Agrobacterium tumefaciens NT1(pZLR4) was grown in AB minimal medium supplemented with mannitol (0.2%). After supplementation with appropriate AHL, each of the QS-biosensors expresses a reporting activity, which is the production of the pigment violacein in C. violaceum CV026 and that of β-galactosidase from the transcriptional fusion traG::lacZ in A. tumefaciens NT1(pZLR4).
When the screening was performed, the chemical library of the Institut de Chimie des Substances Naturelles (ICSN, Gif-sur-Yvette, France) contained more than 3500 synthetic and natural compounds, which were individually dissolved in dimethylsulfoxide (DMSO) at 1mg/ml and stored in 96 microwell plates. A first screening was performed by mixing biosensor CV026 with the AHL hexanoylhomoserine lactone (C6-HSL) at 0.5 µM and the tested compounds at 50 µg/ml. Final volume was adjusted to 100 µl with a synthetic medium (10% LBm and 0.4% sucrose). After 24 hours of incubation at 30°C, the presence or absence of violacein pigment was quoted by visual reading. […] Final volume was adjusted to 100 µl by the addition of AB minimal medium supplemented with mannitol (0.2%) and TY medium (10%). After 4 hours of incubation at 30°C, β-galactosidase activity was measured in A. tumefaciens cultures as previously described. In the two screenings, 4-nitropyridine-N-oxide (4-NPO) was used as a QSI reference. […]

[2] = tested on: Agrobacterium biosensor cells; assay: Minimal bactericidal concentration (MBC); type: cell-based, Agrobacterium tumefaciens; details: 99.9% reduction of 10^5 CFU/ml after 36 h at 30°C
Method: Aside from the effect of QSI on QS regulation, the toxicity of these compounds was tested on bacterial cells by measuring two parameters: the minimal inhibitory concentration (MIC) and minimal bactericidal concentration (MBC). MIC, which is the lowest concentration of QSI (µg/ml) inhibiting any visible culture after 36 h of incubation at 30°C, was estimated by culturing 10^5 CFU/ml of the Agrobacterium biosensor cells in the presence of different concentrations of the QSI. MBC, which is the lowest concentration of QSI (µg/ml) that results in a 99.9% reduction of the initial bacterial population (10^5 CFU/ml) after 36 h of incubation at 30°C in the presence of different concentrations of QSI, was estimated by plating 100 µL of the Agrobacterium cultures on agar LBm plates. After an incubation of 48 h at 30°C, CFU were counted and the MBC values were calculated.

[3] = tested on: QS-signal accumulation in P. aeruginosa; assay: AHL (C4-HSL, OC12-HSL) quantification in P. aeruginosa cultures by mass spectrometry; type: cell-based, Pseudomonas aeruginosa; details: QSI at 0.5 mg/ml, 18-hour
Method: Figure 5 QSIs modulated QS-signal accumulation in P. aeruginosa. Growth kinetics (n = 6) of P. aeruginosa was measured (OD600) in the presence of the QSIs (estradiol, estrone, estriol, hordenine and 4-NPO) at 0.5 mg/ml using DMSO as a negative control. Cell counts were assessed (CFU/ml) at 8- and 18-hour, and C4-HSL and OC12-HSL concentration (µM) were determined in the bacterial cultures at 18-hour. Statistically different values (Student's t test with α = 0.01) are noted by asterisks.
QS gene transcription in P. aeruginosa PAO1 was monitored using PAO1 strains carrying various gene promoters fused to a lacZ reporter gene, as described in Vandeputte et al., 2010 and Table 1. PAO1 reporter strains were prepared according to Vandeputte et al.. Briefly, 18-hours-old liquid cultures (50 µl) were diluted in order to obtain a starting OD600 nm comprised between 0.02 and 0.03 in fresh LB medium supplemented with 50 mM MOPS pH 7.0 (1 ml), carbenicillin (300 µg/ml) and 10 µl of the QSIs to be tested (OD were measured using a SpectraMax M2 device from Molecular Devices). Test and control QSIs were diluted in 100% DMSO (resulting after addition to the growth medium in a 1% final concentration of DMSO). Cultures were incubated for 18 hours at 37°C with agitation. After incubation, cell densities were assessed spectrophotometrically (OD600 nm) and β-galactosidase assays were performed using the substrate o-nitrophenyl-β-D-galactopyranoside as described previously, [29]. Promoterless-lacZ fusions were used as controls. AHLs were quantified as described in Vandeputte et al.. All tests were performed in quintuplicates and three biological repetitions. The statistical significance of each test was evaluated by conducting Student's t tests and two-way ANOVA combined with the Tukey post-analysis test using the GraphPad Prism software and p values≤0.01 were considered significant.

Molecule | QSI hit in library screening [1] | IC50 ([1]; β-galactosidase activity of Agrobacterium biosensor in presence of AHL (C8-HSL 10 nM), QSI 1.5 to 100 µg/ml) [µg/mL] | MBC [2] [µg/mL] | C4-HSL concentration in cell cultures [3] | OC12-HSL concentration in cell cultures [3] | inhibition at 100 µg/mL ([1]; Agrobacterium tumefaciens, read-out: inhibition (%) at 100 µg/ml) [%] | MBC ([2]; Agrobacterium, read-out: MBC) [µg/mL]
3-Hydroxy-13-methyl-6,7,8,9,11,12,13,14,15,17-decahydro-cyclopenta[a] phenanthren-16-one [Compound 729, reference compound] | hits | 75 | >100 | reduction | reduction | – | –
CN(C)CCc1ccc(O)cc1 [Compound 3499, hordenine] | hits | – | – | reduction | reduction | 19 | > 100
C[C@]12CC[C@@H]3c4ccc(O)cc4CC[C@H]3[C@@H]1C[C@@H](O)[C@@H]2O [Estriol, estriol] | – | – | – | reduction | reduction | – | > 100
